Columns and labels:
[1] = tested on: ovariectomized, hypoestrogenic rats; conditions: introduction into the lateral ventricle in the brain; cited from earlier work
patients with dementia = conditions: patients in the treatment of Alzheimer's disease; cited from earlier work
hemigonadectomized rats = assay: Sexual activity of hemigonadectomized rats (hypogonadal state model); type: in vivo, rat
Excerpt: Evaluation of the effects of ipidacrine pharmaceutical formulation in rats with the reduced sexual activity caused by hemigonadectomy. The hemigonadectomy is similar to the pathological processes observed in the clinical picture and associated with the decrease in hormone production by the sex glands. The model of hypogonadal state in rats induced by the hemigonadectomy corresponds to the pathological processes observed in the clinical picture and associated with the decreased hormone production of the sex glands.
The study of the ipidacrine pharmacological activity was conducted in albino male rats. The following six groups of animals were formed: 1—intact, 2—treated with sildenafil, 3—galantamine, 4—ipidacrine, 5—gonadectomized, 6—control.
30 days before the start of the main study, the experiment was performed (3 times a week for 2 weeks), namely introduction of a receptive female to the male rat. The number of ejaculations was recorded. Those animals whose level of sexual activity was characterized by stable performance of 1-2 ejaculations during the period of the test were selected.
The selected male rats underwent the hemigonadectomy (at the right) performed under ether anesthesia. Then, during 7 and 14 days prior to the course administration of the drugs, daily testing of sexual activity of the hemigonadectomized animals was carried out. The latency period and the number of mounts, intromissions and ejaculations in different groups of the animals were considered.

[2] = tested on: male rats exposed to chronic stress (electrical current); assay: Sexual activity of male rats in the model of chronic stress caused by electrical current exposure; type: in vivo, rat
Experimental: The most appropriate model (in terms of the ease of implementation) is the model of psychogenic sexual dysfunction caused by exposure to physical factors (electrical current) in rats.
The pre-experiment with the animals was performed similar to that described in Example 2.
The two groups of the animals similar in the sexual activity level were formed: control (administration of distilled water), pharmaceutical formulation (on ipidacrine basis at a dose of 1.7 mg/kg). The animals of the control and experimental groups were daily exposed to current with a voltage of 30V for 30 min once a minute with an impulse with duration of 1 sec. The drug was administered 30 minutes before the stress, the testing was performed 60 min after the stress.

[3] = tested on: hypoactive male rats with spontaneously reduced sexual function; assay: Sexual activity of initially hypoactive male rats with spontaneously reduced sexual function; type: in vivo, rat
Excerpt: This model is associated with the clinical conditions of anorgasmia or delayed ejaculation in humans. According to the results of the five-fold testing of the intact animals, the groups of hypoactive male rats were formed. The criterion for selection was average number of ejaculations of less than 0.5 according to the results of the five-fold testing.
To assess the effect of ipidacrine on sexual function of rats with the reduced sexual activity, the groups of the animals with initially low manifestations of copulatory and ejaculatory components of behavior were formed. This model reflects the clinical conditions of anorgasmia and delayed ejaculation. The effect of the drug on the integral indicator of the sexual function (number of ejaculations) at a dose of 0.85 to 5.1 mg/kg when administered daily is shown in FIG. 3

CNC(=O)Oc1ccc2c(c1)[C@]1(C)CCN(C)[C@@H]1N2C [eserine]
lordosis [1]: increases the lordosis

COc1cc2c(cc1OC)C(=O)C(CC1CCN(Cc3ccccc3)CC1)C2 (stereo not shown) [donepezil]
sexual behavior (side effect) (patients with dementia): increase in the sexual behavior

Nc1c2c(nc3c1CCC3)CCCC2 [ipidacrine, Ipidacrine]
level of the sexual activity (fluctuations due to external stressor effects) (hemigonadectomized rats; 1.7 mg/kg once daily for 7 days, hemigonadectomized rats): eliminates fluctuations in the level of the sexual activity
time of maximum manifestation of the increase in sexual activity (hemigonadectomized rats; 5.1 mg/kg, 2 times a day for 14 days): 3 to 5 days
time of maximum manifestation of the increase in sexual activity (hemigonadectomized rats; 0.85 to 1.7 mg/kg, 2 times a day for 14 days): 11 to 14 days
sexual activity of the animals (hemigonadectomized rats; 0.85 to 5.1 mg/kg, 2 times a day for 14 days, hemigonadectomized rats): dose-dependent increase in the sexual activity
formation of sexual dysfunction ([2]; 1.7 mg/kg once a day prior to the stress): slower formation of sexual dysfunction
parameters of activity in the initial period ([2]; 1.7 mg/kg, 1 to 3 days, versus group nonsusceptible to stress): comparable to the parameters in the group nonsusceptible to the stress
frequency of ejaculations ([2]; 1.7 mg/kg, 3rd to 10th day of the experiment): 60-100%
rate of renewal of activity after the first ejaculation ([2]; 1.7 mg/kg, 3rd to 10th day, versus stressed animals without treatment): higher rate of renewal of activity after the first ejaculation
latency period of intromissions (7th day) and of intromissions and mounts (10th day) versus group without treatment ([2]; 1.7 mg/kg, 7th and 10th day): Significant differences from the group without treatment
number of ejaculations ([2]; 1.7 mg/kg, 10th and 14th day of the 14 day exposure to stress): 0.4-0.6
latency period of mounts and intromissions compared to animals nonsusceptible to stress ([2]; 1.7 mg/kg, starting from the 5th day): significant increase in the latency period of mounts and intromissions
average number of ejaculations in the group ([3]; 0.85 mg/kg daily): 0.6-0.8
rate of occurrence of ejaculations ([3]; 0.85 mg/kg daily): 80%
latency period of mounts and intromissions ([3]; 0.85 mg/kg daily, 7th to 14th day, versus background, trend level, similar changes in control): reduction of the latency period of mounts and intromissions
time to renewal of sexual activity after the first ejaculation (on the average) ([3]; 0.85 mg/kg daily, some animals): 4 to 6 min
sexual activity ([3]; 0.85 mg/kg daily, starting with the 2nd week): increase in the sexual activity
number of animals able to ejaculate ([3]; 1.7 mg/kg): up to 80%
effect on the sexual function ([3]; 1.7 mg/kg, 14 days): activating effect on the sexual function throughout the whole observation period
reduction in the latency time of mounts and intromissions ([3]; 1.7 mg/kg, after the first administration): 2 to 4 fold
ejaculatory component ([3]; 1.7 mg/kg, throughout the course of administration): increase of the ejaculatory component in comparison with the control
efficacy in spontaneous sexual hypoactivity ([3]; 5.1 mg/kg): effective only when administered for 5 days
manifestation of the sexual activity on subsequent administration ([3]; 5.1 mg/kg, after the first 5 days): negative effect on the manifestation of the sexual activity
sexual activity (central motivational and ejaculatory components) ([3]; 5.1 mg/kg, first 5 days): increased the sexual activity in the animals during the first 5 days of observation
values of indicators of sexual activity ([3]; 5.1 mg/kg, in 10, 14 days of the experiment): comparable to the control
latency period of mounts ([3]; 5.1 mg/kg, in 3 days of observation, reduced from 33.0±5.35, p<0.05): 9.3 ± 1.93 s
latency period of intromissions ([3]; 5.1 mg/kg, in 3 days of observation, reduced from 59.8 ±11.34, p<0.05): 10.5 ±1.76

Reference: patent publication US20150368203A1, “PHARMACEUTICAL FORMULATIONS CONTAINING IPIDACRINE AND THEIR USE FOR THE TREATMENT OF DISORDERS OF POTENCY AND DISORDERS OF OTHER FORMS OF SEXUAL ACTIVITY” (Limited Liability Company "KONSORTSIUM-PIK", priority 2012, published 2015)
